# Measurements published in the kinase profiling compilation of Christmann-Franck et al. (2016).
# Key:
# Test in all cases: radiometric filter-binding kinase assay
# [1] = molecular target: FGFR1 (human) (UniProt P11362)
# [2] = molecular target: TBK1 (human) (UniProt Q9UHD2)
# [3] = molecular target: INSR (human) (UniProt P06213)
# [4] = molecular target: MAP2K2 (human) (UniProt P36507)
# [5] = molecular target: EPHB2 (human) (UniProt P29323)
# [6] = molecular target: PIM3 (human) (UniProt Q86V86)
# [7] = test system: PAK2 (human), Q13177 [T402E]
# [8] = molecular target: RIPK2 (human) (UniProt O43353)
# [9] = molecular target: CSK (human) (UniProt P41240)
# [10] = molecular target: JAK2 JH1 JH2 (human) (UniProt O60674)
# [11] = test system: RPS6KB1 (human), P23443 [T412E]
# [12] = molecular target: BRSK1 (human) (UniProt Q8TDC3)
# [13] = test system: SGK1 (human), O00141 [S422D]
# [14] = molecular target: AURKA (human) (UniProt O14965)
# [15] = molecular target: PLK1 (human) (UniProt P53350)
# [16] = molecular target: TTK (human) (UniProt P33981)
# [17] = molecular target: SYK (human) (UniProt P43405)
# [18] = molecular target: FLT1 (human) (UniProt P17948)
# [19] = molecular target: MARK4 (human) (UniProt Q96L34)
# [20] = molecular target: BRSK2 (human) (UniProt Q8IWQ3)
# BRSK2 (human), sequence (Q8IWQ3 whole entry, looked up): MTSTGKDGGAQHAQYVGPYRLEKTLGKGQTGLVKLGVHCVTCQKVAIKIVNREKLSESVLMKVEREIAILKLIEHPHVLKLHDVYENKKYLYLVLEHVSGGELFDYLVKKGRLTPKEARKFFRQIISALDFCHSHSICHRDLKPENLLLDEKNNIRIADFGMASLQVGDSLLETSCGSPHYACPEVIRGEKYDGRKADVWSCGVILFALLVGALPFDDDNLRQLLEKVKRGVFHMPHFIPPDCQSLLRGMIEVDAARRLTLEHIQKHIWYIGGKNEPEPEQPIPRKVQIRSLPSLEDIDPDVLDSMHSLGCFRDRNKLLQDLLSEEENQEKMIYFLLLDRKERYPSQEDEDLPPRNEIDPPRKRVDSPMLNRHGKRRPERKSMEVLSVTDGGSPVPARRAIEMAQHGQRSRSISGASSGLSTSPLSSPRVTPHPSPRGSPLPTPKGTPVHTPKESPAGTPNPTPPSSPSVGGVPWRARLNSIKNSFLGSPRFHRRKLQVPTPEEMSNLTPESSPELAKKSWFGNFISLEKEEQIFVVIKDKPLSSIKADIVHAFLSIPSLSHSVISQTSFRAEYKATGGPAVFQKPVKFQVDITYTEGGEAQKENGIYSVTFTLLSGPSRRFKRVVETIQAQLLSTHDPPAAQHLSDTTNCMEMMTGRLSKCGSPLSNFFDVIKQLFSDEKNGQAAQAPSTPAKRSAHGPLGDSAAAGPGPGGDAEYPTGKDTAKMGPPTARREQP
# [21] = molecular target: MELK (human) (UniProt Q14680)
# MELK (human), sequence (Q14680 whole entry, looked up): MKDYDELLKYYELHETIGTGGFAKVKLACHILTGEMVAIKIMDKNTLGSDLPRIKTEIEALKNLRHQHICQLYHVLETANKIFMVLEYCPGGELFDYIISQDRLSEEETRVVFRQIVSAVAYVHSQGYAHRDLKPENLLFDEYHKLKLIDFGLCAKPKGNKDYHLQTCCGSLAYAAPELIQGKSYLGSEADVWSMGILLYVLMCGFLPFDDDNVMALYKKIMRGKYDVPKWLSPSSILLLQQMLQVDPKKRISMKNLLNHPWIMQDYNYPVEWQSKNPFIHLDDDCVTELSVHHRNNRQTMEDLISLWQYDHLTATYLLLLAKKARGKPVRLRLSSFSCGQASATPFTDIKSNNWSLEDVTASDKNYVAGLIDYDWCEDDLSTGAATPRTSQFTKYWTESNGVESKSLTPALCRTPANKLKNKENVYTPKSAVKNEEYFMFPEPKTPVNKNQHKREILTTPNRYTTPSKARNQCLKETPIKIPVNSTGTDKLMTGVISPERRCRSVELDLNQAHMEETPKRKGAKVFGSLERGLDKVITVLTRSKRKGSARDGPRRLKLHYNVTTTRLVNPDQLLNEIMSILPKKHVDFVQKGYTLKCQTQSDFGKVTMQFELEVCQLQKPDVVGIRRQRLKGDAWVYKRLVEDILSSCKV
# [22] = molecular target: INSRR (human) (UniProt P14616)
# [23] = molecular target: MAPKAPK3 (human) (UniProt Q16644)
# MAPKAPK3 (human), sequence (Q16644 whole entry, looked up): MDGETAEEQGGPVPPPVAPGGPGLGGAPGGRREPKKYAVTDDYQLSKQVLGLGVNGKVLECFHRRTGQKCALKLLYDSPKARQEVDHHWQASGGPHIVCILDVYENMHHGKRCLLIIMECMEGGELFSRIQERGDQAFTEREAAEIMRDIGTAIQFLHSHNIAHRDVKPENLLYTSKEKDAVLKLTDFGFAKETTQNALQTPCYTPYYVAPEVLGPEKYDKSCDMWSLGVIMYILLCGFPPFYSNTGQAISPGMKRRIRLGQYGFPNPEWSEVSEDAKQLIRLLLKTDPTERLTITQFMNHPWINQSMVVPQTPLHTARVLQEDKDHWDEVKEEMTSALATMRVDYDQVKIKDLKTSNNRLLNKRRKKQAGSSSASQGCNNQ
# [24] = molecular target: EPHA4 (human) (UniProt P54764)
# [25] = molecular target: MAP3K11 (human) (UniProt Q16584)
# MAP3K11 (human), sequence (Q16584 whole entry, looked up): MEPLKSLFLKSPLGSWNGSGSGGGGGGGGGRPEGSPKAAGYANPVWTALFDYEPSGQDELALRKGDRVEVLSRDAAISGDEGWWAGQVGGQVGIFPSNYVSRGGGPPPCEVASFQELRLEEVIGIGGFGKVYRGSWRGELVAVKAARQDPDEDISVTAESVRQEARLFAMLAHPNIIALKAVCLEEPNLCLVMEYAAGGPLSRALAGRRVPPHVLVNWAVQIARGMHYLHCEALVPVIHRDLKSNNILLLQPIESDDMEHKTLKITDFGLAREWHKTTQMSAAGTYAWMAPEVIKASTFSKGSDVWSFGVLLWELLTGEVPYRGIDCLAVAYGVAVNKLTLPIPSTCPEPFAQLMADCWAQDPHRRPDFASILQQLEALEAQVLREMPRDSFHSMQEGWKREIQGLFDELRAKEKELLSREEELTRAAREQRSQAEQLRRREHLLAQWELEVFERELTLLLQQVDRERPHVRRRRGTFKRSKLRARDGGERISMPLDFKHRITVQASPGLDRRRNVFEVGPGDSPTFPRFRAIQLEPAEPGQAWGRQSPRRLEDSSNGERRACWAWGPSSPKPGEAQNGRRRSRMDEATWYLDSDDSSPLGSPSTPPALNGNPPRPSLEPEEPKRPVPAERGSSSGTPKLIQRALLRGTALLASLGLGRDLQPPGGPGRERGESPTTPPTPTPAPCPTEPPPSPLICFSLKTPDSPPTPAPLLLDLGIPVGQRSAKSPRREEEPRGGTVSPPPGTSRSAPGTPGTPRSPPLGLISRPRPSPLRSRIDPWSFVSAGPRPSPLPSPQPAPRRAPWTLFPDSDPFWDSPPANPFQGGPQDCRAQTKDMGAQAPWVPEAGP
# [26] = molecular target: CLK2 (human) (UniProt P49760)
# [27] = molecular target: CSNK1D (human) (UniProt P48730)
# [28] = molecular target: MAPK8 (human) (UniProt P45983)
# MAPK8 (human), sequence (P45983 whole entry, looked up): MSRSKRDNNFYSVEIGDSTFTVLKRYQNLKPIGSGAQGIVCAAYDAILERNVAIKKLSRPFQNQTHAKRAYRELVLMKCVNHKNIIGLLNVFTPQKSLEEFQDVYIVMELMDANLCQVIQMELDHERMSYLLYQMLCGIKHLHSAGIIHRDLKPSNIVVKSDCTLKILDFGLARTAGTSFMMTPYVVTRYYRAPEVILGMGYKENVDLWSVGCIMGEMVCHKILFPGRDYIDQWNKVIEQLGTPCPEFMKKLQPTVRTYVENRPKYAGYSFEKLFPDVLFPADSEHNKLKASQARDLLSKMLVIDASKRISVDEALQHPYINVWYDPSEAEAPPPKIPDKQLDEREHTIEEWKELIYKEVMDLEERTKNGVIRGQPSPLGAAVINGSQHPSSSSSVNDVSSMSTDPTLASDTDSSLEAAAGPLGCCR
# [29] = molecular target: MAP3K7 TAB1 (human) (UniProt Q15750+O43318)
# MAP3K7 TAB1 (human), sequence (O43318 whole entry, looked up): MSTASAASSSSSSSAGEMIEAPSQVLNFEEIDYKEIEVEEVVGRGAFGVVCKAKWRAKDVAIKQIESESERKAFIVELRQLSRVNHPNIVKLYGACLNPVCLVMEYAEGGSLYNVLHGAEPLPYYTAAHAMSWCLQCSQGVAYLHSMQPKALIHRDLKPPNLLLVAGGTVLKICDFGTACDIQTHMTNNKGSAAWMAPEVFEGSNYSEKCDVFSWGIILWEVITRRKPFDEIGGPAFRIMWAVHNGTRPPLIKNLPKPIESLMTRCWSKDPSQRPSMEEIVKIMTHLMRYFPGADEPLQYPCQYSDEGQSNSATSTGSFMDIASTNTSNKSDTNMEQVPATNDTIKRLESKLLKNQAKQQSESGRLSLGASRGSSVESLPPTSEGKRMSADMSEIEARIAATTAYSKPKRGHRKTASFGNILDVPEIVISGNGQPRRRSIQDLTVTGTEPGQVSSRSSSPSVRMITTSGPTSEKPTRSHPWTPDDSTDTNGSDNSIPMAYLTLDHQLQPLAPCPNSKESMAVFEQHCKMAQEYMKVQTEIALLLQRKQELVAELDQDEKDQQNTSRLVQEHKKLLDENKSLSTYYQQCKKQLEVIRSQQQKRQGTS
# MAP3K7 TAB1 (human), sequence (Q15750 whole entry, looked up): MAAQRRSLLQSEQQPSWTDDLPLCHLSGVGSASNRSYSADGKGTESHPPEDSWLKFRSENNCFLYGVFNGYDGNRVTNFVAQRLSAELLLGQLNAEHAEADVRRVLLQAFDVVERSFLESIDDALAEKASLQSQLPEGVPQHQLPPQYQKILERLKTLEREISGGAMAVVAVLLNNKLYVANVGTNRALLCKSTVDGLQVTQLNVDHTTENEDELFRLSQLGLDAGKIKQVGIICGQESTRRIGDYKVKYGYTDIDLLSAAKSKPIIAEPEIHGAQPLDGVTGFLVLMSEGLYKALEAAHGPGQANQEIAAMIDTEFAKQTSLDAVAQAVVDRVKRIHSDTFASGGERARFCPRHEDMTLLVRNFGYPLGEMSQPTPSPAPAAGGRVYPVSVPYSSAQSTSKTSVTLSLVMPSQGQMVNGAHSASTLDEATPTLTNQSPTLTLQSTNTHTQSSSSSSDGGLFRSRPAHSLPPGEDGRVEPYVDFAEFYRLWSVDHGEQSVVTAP
# [30] = molecular target: MAPK12 (human) (UniProt P53778)
# [31] = molecular target: IRAK4 (human) (UniProt Q9NWZ3)
# [32] = molecular target: MYLK (human) (UniProt Q15746)
# [33] = molecular target: PIM1 (human) (UniProt P11309)
# [34] = molecular target: RPS6KA3 KD1 KD2 (human) (UniProt P51812)
# RPS6KA3 KD1 KD2 (human), sequence (P51812 whole entry, looked up): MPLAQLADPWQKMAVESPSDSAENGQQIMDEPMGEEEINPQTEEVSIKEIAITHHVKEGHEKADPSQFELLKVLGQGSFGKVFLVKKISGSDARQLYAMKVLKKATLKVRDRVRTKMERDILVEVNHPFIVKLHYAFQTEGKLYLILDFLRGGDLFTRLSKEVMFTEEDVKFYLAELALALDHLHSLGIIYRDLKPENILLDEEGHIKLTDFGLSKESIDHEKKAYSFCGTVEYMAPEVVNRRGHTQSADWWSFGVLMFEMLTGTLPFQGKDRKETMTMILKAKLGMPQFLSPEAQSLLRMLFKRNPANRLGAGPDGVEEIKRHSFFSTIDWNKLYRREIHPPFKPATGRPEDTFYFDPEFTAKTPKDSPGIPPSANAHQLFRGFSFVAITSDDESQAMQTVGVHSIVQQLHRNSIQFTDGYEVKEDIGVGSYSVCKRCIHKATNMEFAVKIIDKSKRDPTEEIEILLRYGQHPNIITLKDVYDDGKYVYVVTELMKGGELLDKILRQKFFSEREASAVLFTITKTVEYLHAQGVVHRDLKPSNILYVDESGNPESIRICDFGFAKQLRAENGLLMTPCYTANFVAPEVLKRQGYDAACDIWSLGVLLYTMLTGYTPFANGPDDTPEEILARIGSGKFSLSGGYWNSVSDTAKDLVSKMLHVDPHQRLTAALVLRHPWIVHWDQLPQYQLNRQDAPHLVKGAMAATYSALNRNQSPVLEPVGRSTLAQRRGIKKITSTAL
# [35] = molecular target: CDK2 CCNA2 (human) (UniProt P20248+P24941)
smiles,measurement,setting,value
Oc1ccc(/C=C/c2cc(O)cc(O)c2)cc1,residual activity,[1]; compound 10.0 µM,85%
same,residual activity,[2]; compound 10.0 µM,79%
same,residual activity,[3]; compound 10.0 µM,50%
same,residual activity,[4]; compound 10.0 µM,91%
same,residual activity,[5]; compound 10.0 µM,116%
same,residual activity,[6]; compound 1.0 µM,48%
same,residual activity,[6]; compound 10.0 µM,44%
same,residual activity,[6]; compound 50.0 µM,2%
same,residual activity,[7]; compound 10.0 µM,83%
same,residual activity,[8]; compound 10.0 µM,51%
same,residual activity,[9]; compound 1.0 µM,102%
same,residual activity,[9]; compound 10.0 µM,87%
same,residual activity,[9]; compound 50.0 µM,68%
same,residual activity,[10]; compound 10.0 µM,27%
same,residual activity,[11]; compound 1.0 µM,93%
same,residual activity,[11]; compound 10.0 µM,69%
same,residual activity,[11]; compound 50.0 µM,15%
same,residual activity,[12]; compound 10.0 µM,56%
same,residual activity,[13]; compound 1.0 µM,79%
same,residual activity,[13]; compound 10.0 µM,94%
same,residual activity,[13]; compound 50.0 µM,23%
same,residual activity,[14]; compound 10.0 µM,100%
same,residual activity,[15]; compound 1.0 µM,90%
same,residual activity,[15]; compound 10.0 µM,87%
same,residual activity,[15]; compound 50.0 µM,78%
same,residual activity,[16]; compound 10.0 µM,83%
same,residual activity,[17]; compound 10.0 µM,92%
same,residual activity,[18]; compound 10.0 µM,51%
same,residual activity,[19]; compound 10.0 µM,99%
same,residual activity,[20]; compound 1.0 µM,54%
same,residual activity,[20]; compound 10.0 µM,50%
same,residual activity,[20]; compound 50.0 µM,13%
same,residual activity,[21]; compound 1.0 µM,49%
same,residual activity,[21]; compound 10.0 µM,50%
same,residual activity,[21]; compound 50.0 µM,8%
same,residual activity,[22]; compound 10.0 µM,62%
same,residual activity,[23]; compound 1.0 µM,121%
same,residual activity,[23]; compound 10.0 µM,64%
same,residual activity,[23]; compound 50.0 µM,97%
same,residual activity,[24]; compound 10.0 µM,107%
same,residual activity,[25]; compound 10.0 µM,35%
same,residual activity,[26]; compound 10.0 µM,55%
same,residual activity,[27]; compound 1.0 µM,84%
same,residual activity,[27]; compound 10.0 µM,94%
same,residual activity,[27]; compound 50.0 µM,46%
same,residual activity,[28]; compound 1.0 µM,96%
same,residual activity,[28]; compound 10.0 µM,108%
same,residual activity,[28]; compound 50.0 µM,101%
same,residual activity,[29]; compound 10.0 µM,83%
same,residual activity,[30]; compound 1.0 µM,106%
same,residual activity,[30]; compound 10.0 µM,78%
same,residual activity,[30]; compound 50.0 µM,65%
same,residual activity,[31]; compound 10.0 µM,73%
same,residual activity,[32]; compound 1.0 µM,78%
same,residual activity,[32]; compound 10.0 µM,63%
same,residual activity,[32]; compound 50.0 µM,15%
same,residual activity,[33]; compound 1.0 µM,50%
same,residual activity,[33]; compound 10.0 µM,30%
same,residual activity,[33]; compound 50.0 µM,4%
same,residual activity,[34]; compound 1.0 µM,77%
same,residual activity,[34]; compound 10.0 µM,72%
same,residual activity,[34]; compound 50.0 µM,18%
same,residual activity,[35]; compound 1.0 µM,103%
same,residual activity,[35]; compound 10.0 µM,59%
same,residual activity,[35]; compound 50.0 µM,34%
Oc1ccc2ccccc2c1SSc1c(O)ccc2ccccc12,residual activity,[1]; compound 1.0 µM,24%
same,residual activity,[1]; compound 5.0 µM,4%
same,residual activity,[1]; compound 10.0 µM,29%
same,residual activity,[2]; compound 1.0 µM,59%
same,residual activity,[2]; compound 5.0 µM,22%
same,residual activity,[2]; compound 10.0 µM,77%
same,residual activity,[3]; compound 1.0 µM,110%
same,residual activity,[3]; compound 5.0 µM,93%
same,residual activity,[3]; compound 10.0 µM,113%
same,residual activity,[4]; compound 1.0 µM,90%
same,residual activity,[4]; compound 5.0 µM,48%
same,residual activity,[5]; compound 1.0 µM,137%
same,residual activity,[5]; compound 5.0 µM,169%
same,residual activity,[6]; compound 1.0 µM,76%
same,residual activity,[6]; compound 5.0 µM,17%
same,residual activity,[6]; compound 10.0 µM,58%
same,residual activity,[7]; compound 1.0 µM,5%
same,residual activity,[7]; compound 5.0 µM,2%
same,residual activity,[8]; compound 1.0 µM,117%
same,residual activity,[8]; compound 5.0 µM,114%
same,residual activity,[9]; compound 1.0 µM,102%
same,residual activity,[9]; compound 5.0 µM,109%
same,residual activity,[9]; compound 10.0 µM,99%
same,residual activity,[10]; compound 1.0 µM,72%
same,residual activity,[10]; compound 5.0 µM,34%
same,residual activity,[11]; compound 1.0 µM,56%
same,residual activity,[11]; compound 5.0 µM,14%
same,residual activity,[11]; compound 10.0 µM,3%
same,residual activity,[12]; compound 1.0 µM,29%
same,residual activity,[12]; compound 5.0 µM,24%
same,residual activity,[13]; compound 1.0 µM,89%
same,residual activity,[13]; compound 5.0 µM,48%
same,residual activity,[13]; compound 10.0 µM,107%
same,residual activity,[14]; compound 1.0 µM,2%
same,residual activity,[14]; compound 5.0 µM,2%
same,residual activity,[15]; compound 1.0 µM,90%
same,residual activity,[15]; compound 5.0 µM,12%
same,residual activity,[15]; compound 10.0 µM,9%
same,residual activity,[16]; compound 1.0 µM,68%
same,residual activity,[16]; compound 5.0 µM,40%
same,residual activity,[17]; compound 1.0 µM,77%
same,residual activity,[17]; compound 5.0 µM,12%
same,residual activity,[17]; compound 10.0 µM,92%
same,residual activity,[18]; compound 1.0 µM,6%
same,residual activity,[18]; compound 5.0 µM,4%
same,residual activity,[18]; compound 10.0 µM,47%
same,residual activity,[19]; compound 1.0 µM,47%
same,residual activity,[19]; compound 5.0 µM,41%
same,residual activity,[20]; compound 1.0 µM,39%
same,residual activity,[20]; compound 5.0 µM,14%
same,residual activity,[20]; compound 10.0 µM,48%
same,residual activity,[21]; compound 1.0 µM,13%
same,residual activity,[21]; compound 5.0 µM,14%
same,residual activity,[21]; compound 10.0 µM,97%
same,residual activity,[22]; compound 1.0 µM,84%
same,residual activity,[22]; compound 5.0 µM,47%
same,residual activity,[22]; compound 10.0 µM,83%
same,residual activity,[23]; compound 1.0 µM,26%
same,residual activity,[23]; compound 5.0 µM,10%
same,residual activity,[24]; compound 1.0 µM,98%
same,residual activity,[24]; compound 5.0 µM,89%
same,residual activity,[25]; compound 1.0 µM,9%
same,residual activity,[25]; compound 5.0 µM,2%
same,residual activity,[26]; compound 1.0 µM,77%
same,residual activity,[26]; compound 5.0 µM,48%
same,residual activity,[27]; compound 1.0 µM,96%
same,residual activity,[27]; compound 5.0 µM,94%
same,residual activity,[28]; compound 1.0 µM,99%
same,residual activity,[28]; compound 5.0 µM,76%
same,residual activity,[28]; compound 10.0 µM,89%
same,residual activity,[29]; compound 1.0 µM,47%
same,residual activity,[29]; compound 5.0 µM,15%
same,residual activity,[30]; compound 1.0 µM,97%
same,residual activity,[30]; compound 5.0 µM,99%
same,residual activity,[30]; compound 10.0 µM,103%
same,residual activity,[31]; compound 1.0 µM,47%
same,residual activity,[31]; compound 5.0 µM,9%
same,residual activity,[32]; compound 1.0 µM,74%
same,residual activity,[32]; compound 5.0 µM,51%
same,residual activity,[32]; compound 10.0 µM,87%
same,residual activity,[33]; compound 1.0 µM,37%
same,residual activity,[33]; compound 5.0 µM,15%
same,residual activity,[33]; compound 10.0 µM,46%
same,residual activity,[34]; compound 1.0 µM,12%
same,residual activity,[34]; compound 5.0 µM,6%
same,residual activity,[34]; compound 10.0 µM,6%
same,residual activity,[35]; compound 1.0 µM,101%
same,residual activity,[35]; compound 5.0 µM,106%
same,residual activity,[35]; compound 10.0 µM,88%
